Measurements: patent US20080292688A1, “Liposome and preparation method of the same” (Industrial Technology Research Institute, priority 2003, published 2008)
≈ marks a conversion by molar mass, not a printed value.

Experiment: physchem
Details: Solubility of RA
Description: Therefore, TPGS is added with ethanol to increase the solubility of the hydrophobic drug in according to the present invention.

solubility (aqueous buffer): < 0.1 µg/mL
solubility (saline or isotonic): 4 µg/mL (≈ 13.3 µM)
SMILES: CC1=C(/C=C/C(C)=C/C=C/C(C)=C/C(=O)O)C(C)(C)CCC1 [RA, All-Trans Retinoic Acid]
